Measured values: patent publication US10478435B2, “Use of CRAC channel inhibitors for the treatment of stroke and traumatic brain injury” (CalciMedica, Inc., priority 2015, dated 2019)

Tested on: BV2 cells
Assay: Intracellular calcium accumulation in BV2 cells by live fluorescence microscopy with a calcium fluorescent probe
Assay type: cell-based
Conditions: Compound at 10 uM, FIG. 7
Protocol: Described herein, in some embodiments CRAC channel inhibitors are neuroprotectants in brain ischemia and related conditions. A neuron cell line (Neuro-2A, N-2A) was either cultured alone or in co-culture with microglial BV2 cells. Cells were exposed to a cycle of 2 h oxygen glucose deprivation (OGD) plus 22 h reoxygenation in the absence or presence of inhibitor (concentrations 1-50 μM). Cell viability was determined using quantitative calorimetric MTT assay and live/dead assay using immunofluorescence imaging. Toll-like receptor (TLR)-3 and -4 agonists induced inflammatory responses in microglia leading to increased nitric oxide (NO) generation as determined by the Greiss reagent. Intracellular calcium was determined by live fluorescence microscopy using a calcium fluorescent probe. Peroxide levels were measured as an indicator of oxidative stress. CRAC channels proteins (STIM1 & ORAI1), phosphoactive stress kinase JNK1/2, iNOS and expression was determined by immunoblotting assays. NFκB, NFAT and CREB transcription factors activation was measured by phosphorylation and nuclear translocation. […] The functional activity of the CRAC channels was evaluated by the effect on intracellular calcium accumulation in BV2 cells. […]
Fluorescence-based A neuron cell line (Neuro-2A, N-2A) was either cultured alone or in co-culture with microglial BV2 cells. […]

Cc1nc2cc(C)c(-c3cnc(NC(=O)c4c(F)ccc(F)c4F)s3)cc2o1 [Compound D, N-(5-(2,5-dimethylbenzo[d]oxazol-6-yl)thiazol-2-yl)-2,3,6-trifluorobenzamide]
LPS activated calcium accumulation: blunts LPS activated calcium accumulation
